Experimental data as given in patent US11661440B2 (priority 2015, dated 2023).
Ends that are not written are not given here.

What was measured:
[1] = test system: NMDA receptor; format: cell-based, rat
[2] = target: NR1a/NR2B (GluN1-a/GluN2B) recombinant NMDA receptor (Rattus norvegicus, UniProt Q00960); format: cell-based
[3] = target: NR1a/NR2A (GluN1-a/GluN2A) recombinant NMDA receptor (Rattus norvegicus, UniProt Q00959); format: cell-based
Chain of NR1a/NR2A (GluN1-a/GluN2A) recombinant NMDA receptor (Q00959 whole entry, looked up): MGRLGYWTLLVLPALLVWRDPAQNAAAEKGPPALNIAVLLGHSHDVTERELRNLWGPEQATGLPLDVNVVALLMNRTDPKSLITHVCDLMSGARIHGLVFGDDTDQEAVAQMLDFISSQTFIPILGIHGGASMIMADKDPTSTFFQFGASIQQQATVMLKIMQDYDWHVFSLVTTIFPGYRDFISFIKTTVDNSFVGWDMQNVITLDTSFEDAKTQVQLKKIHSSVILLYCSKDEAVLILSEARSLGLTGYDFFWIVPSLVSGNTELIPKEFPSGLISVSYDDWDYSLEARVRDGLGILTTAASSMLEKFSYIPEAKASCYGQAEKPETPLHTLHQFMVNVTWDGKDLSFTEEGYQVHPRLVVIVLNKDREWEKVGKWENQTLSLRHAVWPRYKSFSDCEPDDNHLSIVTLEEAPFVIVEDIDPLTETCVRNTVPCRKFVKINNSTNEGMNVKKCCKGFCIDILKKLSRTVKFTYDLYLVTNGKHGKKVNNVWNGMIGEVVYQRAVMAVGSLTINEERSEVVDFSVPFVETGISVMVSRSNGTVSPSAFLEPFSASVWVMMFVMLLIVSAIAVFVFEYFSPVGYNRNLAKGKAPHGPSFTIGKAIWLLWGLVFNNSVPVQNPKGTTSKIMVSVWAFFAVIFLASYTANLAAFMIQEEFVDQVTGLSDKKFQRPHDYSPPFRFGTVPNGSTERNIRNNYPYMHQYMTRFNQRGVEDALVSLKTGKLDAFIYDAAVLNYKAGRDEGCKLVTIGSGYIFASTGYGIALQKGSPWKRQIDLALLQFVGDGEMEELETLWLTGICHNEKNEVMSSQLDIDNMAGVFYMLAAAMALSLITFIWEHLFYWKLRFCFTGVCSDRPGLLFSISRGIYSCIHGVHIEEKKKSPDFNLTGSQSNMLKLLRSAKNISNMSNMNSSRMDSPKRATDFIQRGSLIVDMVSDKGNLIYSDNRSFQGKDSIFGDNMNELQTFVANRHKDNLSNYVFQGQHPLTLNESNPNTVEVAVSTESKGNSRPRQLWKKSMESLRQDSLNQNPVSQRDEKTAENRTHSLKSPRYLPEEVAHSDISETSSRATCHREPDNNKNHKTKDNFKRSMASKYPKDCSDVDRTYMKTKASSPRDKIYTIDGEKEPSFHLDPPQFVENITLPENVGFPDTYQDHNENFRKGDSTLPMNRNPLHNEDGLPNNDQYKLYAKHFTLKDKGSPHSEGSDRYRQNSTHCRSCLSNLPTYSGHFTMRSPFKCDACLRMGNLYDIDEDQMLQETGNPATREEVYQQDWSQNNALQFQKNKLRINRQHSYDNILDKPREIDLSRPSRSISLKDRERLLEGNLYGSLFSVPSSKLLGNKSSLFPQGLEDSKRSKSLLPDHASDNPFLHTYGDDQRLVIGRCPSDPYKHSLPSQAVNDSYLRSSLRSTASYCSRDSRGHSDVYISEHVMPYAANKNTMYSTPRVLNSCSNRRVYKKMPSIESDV

Chain of NR1a/NR2B (GluN1-a/GluN2B) recombinant NMDA receptor (Q00960 whole entry, looked up): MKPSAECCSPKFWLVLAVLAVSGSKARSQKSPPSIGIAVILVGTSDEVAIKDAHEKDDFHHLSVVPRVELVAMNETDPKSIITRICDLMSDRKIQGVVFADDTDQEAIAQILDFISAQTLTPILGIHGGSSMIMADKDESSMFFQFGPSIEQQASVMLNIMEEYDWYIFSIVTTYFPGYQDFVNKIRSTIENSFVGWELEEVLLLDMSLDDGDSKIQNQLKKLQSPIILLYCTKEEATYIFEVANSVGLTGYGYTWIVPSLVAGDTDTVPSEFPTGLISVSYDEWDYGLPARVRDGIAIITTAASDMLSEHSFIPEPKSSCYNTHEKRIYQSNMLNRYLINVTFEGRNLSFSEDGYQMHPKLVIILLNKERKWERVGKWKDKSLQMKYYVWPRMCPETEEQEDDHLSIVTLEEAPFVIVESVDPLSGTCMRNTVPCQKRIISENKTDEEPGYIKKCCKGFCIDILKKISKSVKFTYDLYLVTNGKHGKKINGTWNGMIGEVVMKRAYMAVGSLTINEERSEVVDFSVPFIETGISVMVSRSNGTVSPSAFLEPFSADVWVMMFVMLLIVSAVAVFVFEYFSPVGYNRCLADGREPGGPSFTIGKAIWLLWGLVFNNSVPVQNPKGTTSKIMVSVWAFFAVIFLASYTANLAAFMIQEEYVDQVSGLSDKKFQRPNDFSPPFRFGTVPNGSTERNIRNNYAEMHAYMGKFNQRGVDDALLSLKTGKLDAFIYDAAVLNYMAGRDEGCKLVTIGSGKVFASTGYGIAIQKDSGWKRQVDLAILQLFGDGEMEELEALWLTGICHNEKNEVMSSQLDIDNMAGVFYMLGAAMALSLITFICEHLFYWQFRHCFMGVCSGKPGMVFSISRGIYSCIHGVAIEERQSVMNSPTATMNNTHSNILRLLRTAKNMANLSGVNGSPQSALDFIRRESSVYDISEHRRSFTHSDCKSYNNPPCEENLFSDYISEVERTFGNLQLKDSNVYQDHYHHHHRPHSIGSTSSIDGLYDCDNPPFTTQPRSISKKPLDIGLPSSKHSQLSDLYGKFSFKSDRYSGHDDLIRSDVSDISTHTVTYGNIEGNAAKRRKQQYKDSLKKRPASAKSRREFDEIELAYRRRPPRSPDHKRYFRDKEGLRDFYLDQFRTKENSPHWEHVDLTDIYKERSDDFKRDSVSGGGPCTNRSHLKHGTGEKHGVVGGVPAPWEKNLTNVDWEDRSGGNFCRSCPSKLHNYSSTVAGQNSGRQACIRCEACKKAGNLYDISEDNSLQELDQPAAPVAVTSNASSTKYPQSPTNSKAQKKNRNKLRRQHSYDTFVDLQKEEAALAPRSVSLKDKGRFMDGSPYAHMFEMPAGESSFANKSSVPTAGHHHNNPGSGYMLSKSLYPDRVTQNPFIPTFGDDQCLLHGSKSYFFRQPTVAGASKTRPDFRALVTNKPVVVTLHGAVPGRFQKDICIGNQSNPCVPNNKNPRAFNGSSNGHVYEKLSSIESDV

GEDDLQDNQDLIRDKSN [SEQ ID NO: 2]
inhibition in some registers [1]: ~40% | IC50 ([1]; read-out: IC50 for inhibition of NMDA receptor-evoked current (dose-response curve)): 202 µM | blocking of evoked current (in words) [2]: Almost total blocking of the current | selectivity between GluN2B and GluN2A subunits (in words) [2]: selectivity for subunit GluN2B rather than GluN2A | reduction of evoked current (in words) [3]: slight reduction in current
